Experimental data taken from patent publication US10072065B2, “Peptide-mediated delivery of immunoglobulins across the blood-brain barrier” (Mayo Foundation for Medical Education and Research, priority 2015, dated 2018).

Tested on: blood-brain barrier (BBB)
Experiment: Transportation of Evan's Blue (EB) across the BBB after IV Apo-I or peptide-cetuximab complex
Format: in vivo, mouse
Conditions: ~40 μL 2% EB only, IV femoral vein, brain evaluated approximately 2 hours after dye (brain number 1)
Protocol: To explore whether Apo-I transports an antibody across the BBB, the peptide or a peptide-cetuximab complex were first injected by IV followed by injection of Evan's Blue (EB; a routinely used small molecule blue dye with a molecular weight of 960.81) by IV into the femoral vein of a mouse. Cardiac perfusion was performed and the brains of the mice were removed and evaluated approximately 2 hours following injection of the dye. As a control, injection of EB only was used. The particulars of each administration are as follows: • 1) ˜40 μL 2% EB only was injected. • 2) 300 μg of Apo-I was injected first, then ˜40 μL 2% EB was injected. • 3) 600 μg of Apo-I was injected first, then ˜40 μL 2% EB was injected. • 4) 600 μg of Apo-I was mixed with 200 μg cetuximab prior to injection and then injected first, then ˜40 μL 2% EB was injected.

Cc1cc(-c2ccc(/N=N/c3ccc4c(S(=O)(=O)[O-])cc(S(=O)(=O)[O-])c(N)c4c3O)c(C)c2)ccc1/N=N/c1ccc2c(S(=O)(=O)[O-])cc(S(=O)(=O)[O-])c(N)c2c1O.[Na+].[Na+].[Na+].[Na+] [EB, Evan's Blue]
EB reaching the brain (blue coloring of brain): cannot reach the brain
